# Test results published in patent publication US20260266848A1, “COMPOSITIONS AND METHODS FOR DIAGNOSING AND TREATING DYSTONIA” (Duke University, priority 2023, published 2026).
# System: DYT1 MEF secreted EVs
# Assay: Small RNAseq of miRNAs in EVs secreted by DYT1 vs WT MEFs, ritonavir 24 h
# Type: cell-based, mouse
# Details: 24 hour culture exposure
# Description: RNA was isolated from the DYT1 vs WT mouse embryonic fibroblast (MEF) secreted EVs, using the same cultures used in proteomic experiments. Small RNA sequencing was performed using a Illumina Novoseq 500. […] The number of independent culture preparations per genotype was three (N=3). The EV fraction was divided and separately analyzed for proteins and RNAs. […] Genotype-disrupted miRNAs and genotype-directionality as identified in FIG. 6A are indicated by blue and red dots in FIG. 6B. […] Blue and red data points of FIG. 6C identify genotype effect and directionality originally as in FIG. 6A.
smiles,measurement,setting,value
CC(C)c1nc(CN(C)C(=O)N[C@H](C(=O)N[C@@H](Cc2ccccc2)C[C@H](O)[C@H](Cc2ccccc2)NC(=O)OCc2cncs2)C(C)C)cs1 [ritonavir],effect on genotype-disrupted subset of EV miRNAs,,strong correlation of corrective effects
same,effect on genotype-disrupted subset of EV miRNAs,listed as Ritonavir,stronger correlation of corrective effects
